These results are taken from PubChem BioAssay AID1259407 (Chemical Carcinogenesis Research Information System (CCRIS), 2018).

The data set deals with CCRIS mutagenicity, Ames/micronucleus/aberration tests. The data set can be described thus: CCRIS mutagenicity studies.

Active and inactive are the calls of the source. How the calls were made is not given here.

In the case of `OCc1c2ccccc2c2ccc3cccc4ccc1c2c43`, the mutagenic call was “active; positive” (Test System: AMES SALMONELLA TYPHIMURIUM, Strain/Indicator: TA98, Metabolic Activation: RAT, LIVER, CYTOSOL AND PAPS-GENERATING SYSTEM, Method: PREINCUBATION); “active; positive” (Test System: AMES SALMONELLA TYPHIMURIUM, Strain/Indicator: TA100, Metabolic Activation: RAT, LIVER, CYTOSOL AND PAPS-GENERATING SYSTEM, Method: PREINCUBATION); “active; positive” (Test System: AMES SALMONELLA TYPHIMURIUM, Strain/Indicator: TA100, Metabolic Activation: RAT, LIVER, S-9, AROCLOR 1254, Method: STANDARD PLATE); “active; positive” (Test System: AMES SALMONELLA TYPHIMURIUM, Strain/Indicator: TA1538, Metabolic Activation: RAT, LIVER, S-9, AROCLOR 1254, Method: STANDARD PLATE); “active; positive” (Test System: CHINESE HAMSTER V-79, Strain/Indicator: V-79 (HGPRT)/6-THIOGUANINE, Metabolic Activation: NONE); “active; positive” (Test System: CHINESE HAMSTER V-79, Strain/Indicator: V-79 (NA/K-ATPASE)/OUABAIN, Metabolic Activation: NONE). In addition, where the note is “Test System: CHINESE HAMSTER V-79, Strain/Indicator: V-79/OUABAIN, Metabolic Activation: HAMSTER, EMBRYO, CELL-MEDIATED, Method: STANDARD PLATE”, the mutagenic call is “active; positive”.

As to `[O]=[Ce]=[O]`, the mutagenic call (Test System: AMES SALMONELLA TYPHIMURIUM, Strain/Indicator: TA98, Metabolic Activation: NONE, Method: PREINCUBATION) is “inactive; negative”; the mutagenic call (Test System: AMES SALMONELLA TYPHIMURIUM, Strain/Indicator: TA98, Metabolic Activation: RAT, LIVER, S-9, KC 500, Method: PREINCUBATION) was “inactive; negative”; the mutagenic call (Test System: AMES SALMONELLA TYPHIMURIUM, Strain/Indicator: TA100, Metabolic Activation: NONE, Method: PREINCUBATION) is “inactive; negative”; the mutagenic call (Test System: AMES SALMONELLA TYPHIMURIUM, Strain/Indicator: TA100, Metabolic Activation: RAT, LIVER, S-9, KC 500, Method: PREINCUBATION) is “inactive; negative”; the mutagenic call (Test System: AMES SALMONELLA TYPHIMURIUM, Strain/Indicator: TA1535, Metabolic Activation: NONE, Method: PREINCUBATION) was “inactive; negative”; the mutagenic call (Test System: AMES SALMONELLA TYPHIMURIUM, Strain/Indicator: TA1535, Metabolic Activation: RAT, LIVER, S-9, KC 500, Method: PREINCUBATION) is “inactive; negative”. Further, the mutagenic call (Test System: AMES SALMONELLA TYPHIMURIUM, Strain/Indicator: TA1537, Metabolic Activation: NONE, Method: PREINCUBATION) was “inactive; negative”; the mutagenic call (Test System: AMES SALMONELLA TYPHIMURIUM, Strain/Indicator: TA1537, Metabolic Activation: RAT, LIVER, S-9, KC 500, Method: PREINCUBATION) was “inactive; negative”; the mutagenic call (Test System: AMES SALMONELLA TYPHIMURIUM, Strain/Indicator: TA1538, Metabolic Activation: NONE, Method: PREINCUBATION) is “inactive; negative”; the mutagenic call (Test System: AMES SALMONELLA TYPHIMURIUM, Strain/Indicator: TA1538, Metabolic Activation: RAT, LIVER, S-9, KC 500, Method: PREINCUBATION) was “inactive; negative”; the mutagenic call (Test System: E. COLI, Strain/Indicator: WP2 UVRA, Metabolic Activation: NONE, Method: PREINCUBATION) is “inactive; negative”; the mutagenic call (Test System: E. COLI, Strain/Indicator: WP2 UVRA, Metabolic Activation: RAT, LIVER, S-9, KC 500, Method: PREINCUBATION) is “inactive; negative”.
